Laboratory results reported in patent US20230293504A1, “TARGETING SUCNR1 TO REDUCE NEUROINFLAMMATION” (New York University, priority 2022, published 2023).

Key:
SUCNR1 [1] = target: T1, SUCNR1 (Mus musculus, UniProt Q99MT6); experiment: Ligature plus F. nucleatum induced periodontitis in mice, topical 7a gel formulation (FIG. 11); format: in vivo
T1 construct: endogenous in cells; host or cells: live mice; C57/B6 is stated for the periodontitis model, and no strain is stated for the LPS model
T1 sequence (Q99MT6 1-317): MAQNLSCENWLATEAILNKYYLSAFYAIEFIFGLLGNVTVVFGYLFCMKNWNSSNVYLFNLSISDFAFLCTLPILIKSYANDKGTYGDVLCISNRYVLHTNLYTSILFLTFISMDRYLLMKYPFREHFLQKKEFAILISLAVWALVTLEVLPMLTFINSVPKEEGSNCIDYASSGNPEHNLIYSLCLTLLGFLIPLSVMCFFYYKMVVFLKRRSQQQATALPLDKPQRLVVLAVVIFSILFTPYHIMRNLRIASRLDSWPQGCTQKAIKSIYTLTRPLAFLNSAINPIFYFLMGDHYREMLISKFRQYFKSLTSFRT
Description: FIG. 11. Targeting SUCNR1 suppressed periodontitis and neuroinflammation. A. Study design. Periodontitis was induced in 14-week-old mice with a 6-0 silk ligature (Roboz Surgical Instrument Co., MD, USA) around the maxillary right side second molar. The ligature were kept in place for 5 days before removal. Sterile swabs soaked in 100 μl of 2.5×10^9/ml F. nucleatum in PBS and inoculated into mice around the ligature affected gingival tissues for 30 seconds. Inoculations were performed twice a week for four weeks. Mice were randomly assigned to receive 3 μl vehicle or 7a gel formulation every other day by topical application. B. Representative μCT images; C. The distance between CEJ to alveolar bone crest. D. IL-1β mRNA levels in the gingivae around the ligature site. E. Serum IL-1β levels. *p<0.05, ** p<0.01, *** p<0.001).
A novel mechanism connecting chronic peripheral inflammation and neuroinflammation. […] Inflammation was induced in 14-week-old C57/B6 mice by placing a ligature on the 2nd maxillary molar for 5-days plus twice/week inoculations of a key periodontal pathogen Fusobacteria nucleatum (Fn) for 4-weeks (FIG. 1A). […] This local inflammation was accompanied with the induction of neuroinflammation evidenced by the activation of microglia (FIG. 1D) and increased IL1β levels in hippocampus, cortex and cerebellum (FIG. 1E-G).
Six in situ gel formulations (ISGs) were produced by varying polymer concentration, changing the hydrophobicity of the solvent system, and use of different plasticizers (such as PEG200). All these ISGs were analyzed by FT-IR/ATR and HPLC assay for drug-polymer compatibility. In vitro drug release experiments were performed to assess the profile of sustained release with controlled initial burst release. One gel formulation was chosen to treat periodontitis animals in-vivo at 1 μg/10 g body weight three times/week (FIG. 11).
To determine if succinate receptor 1 inhibitors could reduce inflammation, succinate receptor 1 inhibitors were administered to mice. In this study (FIG. 11), mice with periodontal disease were used because of the resulting neuroinflammation from the periodontal disease. Topical application of POC7a gel formulation was administered at 1 μg/10 g body weight three times/week.

SUCNR1 [2] = target: T1, SUCNR1; experiment: LPS-induced neuroinflammation in mice, oral gavage of 7a (FIG. 16); format: in vivo; conditions: LPS-treated mice
Description: FIG. 16. […] A. Experimental design and treatment regime. 12-week-old male mice were randomly divided into 3 groups to receive inflammation induction (LPS) and treatment (7a) at indicated timepoints. PBS was used as the control solution to LPS and 20% DMSO in PBS (vehicle) was used as the control solution to 7a. The RNA samples were collected in TRIZol and extracted after perfusion. TNFα and IL1β mRNA levels were measured by Realtime PCR using specific primers and normalized to β-actin. B. Cerebellum, C. Hippocampus and D. Cortex. (* p<0.05. ** p<0.005, *** p<0.0005, **** p<0.0001 One-way ANOVA with post-hoc Tukey test).
Targeting SUCNR1 with topical 7a application reduced periodontitis as well as the associated neuroinflammation in mice. […] Thus, mice were pretreated 7a or vehicle through oral gavage 30 minutes before giving LPS intraperitoneally to induce neuroinflammation. The administration of 7a at 8 hours and 16 hours was repeated after the first dose. The mouse blood samples were collected through cardiac puncture at 24 hours (FIG. 16A). Immediately afterward, PBS was used to perfuse the mice to minimize the impact of blood cells to the gene expression of the brain tissues. The brain tissue samples were collected and the cerebellum, hippocampus, and cortex were micro-dissected and processed for RNA extraction and gene expression analysis.
The 7a solution was prepared as follows. 100 mM 7a stock solution was prepared using DMSO. Then the 7a stock solution was further diluted with PBS to become 20 mM 7a working solution and used for oral gavage to mice. DMSO in PBS (at 20% v/v) was used as vehicle. Based on the animals' body weight, 25 gram mice will receive 100 μL gavage volume) 7a working solution or vehicle. The treatment dose of 7a is 80 μmol/kg.

[3] = mice; succinate IP daily (4 mM/kg) for 4 weeks vs PBS
Description: FIG. 3. […] Mice received daily intraperitoneal (IP) injection with PBS or Succinate (4 mM/kg) for 4 weeks before sample collection. […] B. Alpha Diversity measured by the Observed number of ASVs, and Phylogenetic diversity index for oral swab samples. C. […] D. Network plot generated in Cytoscape 3.8.2. The small gray dots represent ASVs, the white circles represent WT samples, the yellow triangles represent WT_Suc samples. Edges represent the interaction of sample and ASV are colored based on sample type.

Fusobacterium nucleatum = system: Fusobacterium nucleatum
Description: FIG. 5. Fusobacterium nucleatum growth and virulence gene expression. A. F. nucleatum growth in media supplemented with indicated succinate concentrations shown as optical density measures over time (n=3, SEM). Different letters indicate statistically different from one another (ANOVA, p<0.05 by post-hoc Tukey's). B Relative expressions of virulence genes of F. nuleactum in 100 uM of succinate as determine by RT-PCR. (mean±SEM. ** p<0.01, * p<0.05).

[4] = mice with periodontitis, topical gel
[5] = 7a oral gavage 80 μmol/kg, 3 doses, mRNA at 24 hours

CNC(=O)Cc1ccc(-c2ccc3cccnc3n2)cc1 [7a]
IL1β levels in cerebellum tissues (SUCNR1 [1]; [4]): significant reduction | IL1β levels in hippocampal tissues (SUCNR1 [1]; [4]): significant reduction | systemic IL1β levels in the serum (SUCNR1 [1]; [4]): reduced | local IL1β levels in the gingiva (SUCNR1 [1]; mice with periodontitis, topical gel, mRNA around the ligature site): reduced | periodontitis (μCT, distance between CEJ to alveolar bone crest) (SUCNR1 [1]; mice, ligature + F. nucleatum, oral topical gel formulation every other day): inhibited periodontitis | IL1β expression in the cerebellum (SUCNR1 [2]; [5]): less induction | IL1β expression in the hippocampus (SUCNR1 [2]; [5]): less induction | TNFα expression in the cerebellum (SUCNR1 [2]; [5]): less induction | TNFα expression in the cortex (SUCNR1 [2]; [5]): reduced | TNFα expression in the hippocampus (SUCNR1 [2]; [5]): less induction | neuroinflammation (SUCNR1 [2]; oral gavage): reduced neuroinflammation

O=C(O)CCC(=O)O [succinate]
dysbiosis in the oral microbiota (alpha and beta diversity) [3]: increased | serum IL-1β levels [3]: increased | expression of virulence factors (Hemin receptor, Hemolysin, Hemolysin-related protein, Lys R Family transcriptional regulator) (Fusobacterium nucleatum; 100 uM of succinate, RT-PCR): elevated | F. nucleatum growth (optical density) (Fusobacterium nucleatum; media supplemented with succinate): elevated
